Test results published in US9951065B2 (Gilead Sciences, Inc., priority 2015, dated 2018).

target: T1, IDO1 (Homo sapiens, UniProt P14902); test: Cell-based (HeLa) assay for measurement of IDO1 inhibition (kynurenine levels in supernatant after IFNγ induction); settings: HeLa cells, IFNγ-induced IDO1, kynurenine in supernatant after 48 hour incubation; geometric mean of a minimum of four determinations
T1 construct: HeLa cells were treated with a test compound in the presence of IFNγ, which induces IDO1 expression; host or cells: H1-HeLa cells, IDO1 induced with IFNγ
Summary of the method: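 HeLa cells, 1,250 per well, treated with compound (0.5% DMSO final) plus IFNγ to induce IDO1, for 48 h. Supernatant kynurenine measured by TCA hydrolysis at 60 °C, then p-dimethylaminobenzaldehyde, absorbance 480 nm. EC50 from a four-parameter fit normalized to −/+IFNγ controls; geometric mean of at least four runs.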

T1 sequence (P14902 whole entry): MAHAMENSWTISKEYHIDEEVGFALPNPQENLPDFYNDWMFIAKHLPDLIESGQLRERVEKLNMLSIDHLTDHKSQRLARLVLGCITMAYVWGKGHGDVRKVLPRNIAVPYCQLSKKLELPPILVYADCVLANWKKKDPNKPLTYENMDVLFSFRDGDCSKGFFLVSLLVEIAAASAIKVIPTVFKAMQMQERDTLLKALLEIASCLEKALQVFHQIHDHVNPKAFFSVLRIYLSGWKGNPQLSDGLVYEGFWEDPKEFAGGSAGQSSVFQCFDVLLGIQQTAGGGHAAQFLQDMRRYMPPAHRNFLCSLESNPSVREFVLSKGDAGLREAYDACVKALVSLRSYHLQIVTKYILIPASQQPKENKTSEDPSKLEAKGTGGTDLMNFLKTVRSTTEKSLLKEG

CN(C)CC(O)c1nc2nccc(/C(=N/O)Nc3ccc(F)c(Cl)c3)c2[nH]1 (stereo not shown) [Example 195, N-(3-Chloro-4-fluorophenyl)-2-(2-(dimethylamino)-1-hydroxyethyl)-N′-hydroxy-1H-imidazo[4,5-b]pyridine-7-carboximidamide] and CNCCc1nc2nccc(/C(=N/O)Nc3ccc(F)c(Cl)c3)c2[nH]1 [Example 188, N-(3-Chloro-4-fluorophenyl)-N′-hydroxy-2-(2-(methylamino)ethyl)-1H-imidazo[4,5-b]pyridine-7-carboximidamide] are within 1.5-fold of each other in EC50: 1160 nM for the first, 1510 nM for the second.

First: Cn1nccc1CNc1nc2c(F)c(F)cc(/C(=N/O)Nc3ccc(F)c(Cl)c3)c2[nH]1 [Example 299, N-(3-chloro-4-fluorophenyl)-4,5-difluoro-N′-hydroxy-2-(((1-methyl-1H-pyrazol-5-yl)methyl)amino)-1H-benzo[d]imidazole-7-carboximidamide]
Second: CNc1nc2nccc(/C(=N/O)Nc3ccc(F)c(Br)c3)c2[nH]1 [Example 257, N-(3-bromo-4-fluorophenyl)-N′-hydroxy-2-(methylamino)-1H-imidazo[4,5-b]pyridine-7-carboximidamide]
The EC50 of the first is 14-fold higher: 3440 nM for the first, 241 nM for the second.

Compared with O/N=C(\Nc1ccc(F)c(Cl)c1)c1ccnc2nc(CNCc3ccccn3)[nH]c12 [Example 121, N-(3-Chloro-4-fluorophenyl)-N′-hydroxy-2-(((pyridin-2-ylmethyl)amino)methyl)-1H-imidazo[4,5-b]pyridine-7-carboximidamide], O/N=C(\Nc1cc(Br)ccc1F)c1ccnc2nc[nH]c12 [Example 71, N-(5-Bromo-2-fluorophenyl)-N′-hydroxy-1H-imidazo[4,5-b]pyridine-7-carboximidamide] is 6.6-fold lower in EC50: 1370 nM for the first, 207 nM for the second.

CN(C)CCc1nc2c(/C(=N/O)Nc3cccc(Cl)c3)cc(F)c(F)c2[nH]1 [Example 56, N-(3-Chlorophenyl)-2-(2-(dimethylamino)ethyl)-6,7-difluoro-N′-hydroxy-1H-benzo[d]imidazole-4-carboximidamide] was tested, and the EC50 was 562 nM.

same assay, conditions: HeLa cells, IFNγ-induced IDO1, kynurenine in supernatant, 48 hour incubation; geometric mean of a minimum of four determinations

CN1CCC[C@@H](Nc2nc3c(F)c(F)cc(/C(=N/O)Nc4cccc(Cl)c4)c3[nH]2)C1 [Example 460, (R)—N-(3-chlorophenyl)-4,5-difluoro-N′-hydroxy-2-((1-methylpiperidin-3-yl)amino)-1H-benzo[d]imidazole-7-carboximidamide] and COCCN1CCC(Nc2nc3c(F)c(F)cc(/C(=N/O)Nc4ccc(F)c(Cl)c4)c3[nH]2)C1 (stereo not shown) [Example 454, N-(3-chloro-4-fluorophenyl)-4,5-difluoro-N′-hydroxy-2-((1-(2-methoxyethyl)pyrrolidin-3-yl)amino)-1H-benzo[d]imidazole-7-carboximidamide] are within 1.5-fold of each other in EC50: 193 nM for the first, 247 nM for the second.

Compared with O/N=C(\Nc1ccc(F)c(Cl)c1)c1ccnc2nc(NCCN3CCC(F)(F)C3)[nH]c12 [Example 491, N-(3-chloro-4-fluorophenyl)-2-((2-(3,3-difluoropyrrolidin-1-yl)ethyl)amino)-N′-hydroxy-1H-imidazo[4,5-b]pyridine-7-carboximidamide], O/N=C(\Nc1ccc(F)c(Cl)c1)c1cc(F)c(F)c2nc(NCCN3CCC[C@H]3C(F)(F)F)[nH]c12 [Example 470, (S)-N-(3-chloro-4-fluorophenyl)-4,5-difluoro-N′-hydroxy-2-((2-(2-(trifluoromethyl)pyrrolidin-1-yl)ethyl)amino)-1H-benzo[d]imidazole-7-carboximidamide] is 4.6-fold higher in EC50: 917 nM for the first, 4200 nM for the second. The first is the more potent here.

Compared with CN(C)CCCCNc1nc2c(F)c(F)cc(/C(=N/O)Nc3ccc(F)c(Cl)c3)c2[nH]1 [Example 303, N-(3-chloro-4-fluorophenyl)-2-((4-(dimethylamino)butyl)amino)-4,5-difluoro-N′-hydroxy-1H-benzo[d]imidazole-7-carboximidamide], CC(CNc1nc2c(F)c(F)cc(/C(=N/O)Nc3ccc(F)c(Cl)c3)c2[nH]1)N1CCOCC1 (stereo not shown) [Example 377, N-(3-chloro-4-fluorophenyl)-4,5-difluoro-N′-hydroxy-2-((2-morpholinopropyl)amino)-1H-benzo[d]imidazole-7-carboximidamide] is 3.5-fold lower in EC50: 2930 nM for the first, 838 nM for the second. The second is the more potent here.
